Each compound was assayed on MOLT-4 (assay: selective drug sensitivity score (sDSS, relative to normal bone marrow) (sDSS (score)); higher = more potent and effective on the cell line relative to normal bone marrow cells). Settings: 72 h.
With C[C@H]1C[C@@H]2[C@H]([C@@H](O)C[C@@]3(C)[C@H]2CC[C@]3(O)C(=O)CO)[C@@]2(C)C=CC(=O)C=C12 [Methylprednisolone] (top concentration 10000 nM) the “selective drug sensitivity score” value was -2.3.
In the case of FC(F)(F)c1ccc(/C=C/c2nc(COc3ccc(CCCCn4ccnn4)cc3)co2)cc1 [Mubritinib] (top concentration 1000 nM), the “selective drug sensitivity score” value is reported as 19.6.
In the case of COc1cc2c(cc1OC(C)C)[C@H](c1ccc(Cl)cc1)N(c1ccc(N(C)C[C@H]3CC[C@H](N4CCN(C)C(=O)C4)CC3)cc1)C(=O)C2 [NVP-CGM097] (top concentration 25000 nM), the “selective drug sensitivity score” value is reported as 11.8.
In the case of CCOc1cc2ncc(C#N)c(Nc3ccc(OCc4ccccn4)c(Cl)c3)c2cc1NC(=O)/C=C/CN(C)C [Neratinib] (top concentration 1000 nM), the “selective drug sensitivity score” value is reported as 1.38.
In the case of COc1ncc(-c2ccc3nccc(-c4ccnnc4)c3c2)cc1NS(=O)(=O)c1ccc(F)cc1F [Omipalisib] (top concentration 1000 nM), the “selective drug sensitivity score” value is reported as 14.
In the case of CN1CCN(c2cc(C(=O)Nc3ccc4c(c3)-c3c(c(C(N)=O)nn3-c3ccc(F)cc3)CC4)c(Cl)cn2)CC1 [PHA-408] (top concentration 10000 nM), the “selective drug sensitivity score” value is reported as 0.58.
With OC[C@H]1O[C@@H](n2cnc3c2N=CNC[C@H]3O)C[C@@H]1O [Pentostatin] (top concentration 10000 nM) the “selective drug sensitivity score” value was -0.44.
For CC(C)N(C[C@H]1O[C@@H](n2cnc3c(N)ncnc32)[C@H](O)[C@@H]1O)[C@H]1C[C@@H](CCc2nc3cc(C(C)(C)C)ccc3[nH]2)C1 [Pinometostat] (top concentration 1000 nM), the “selective drug sensitivity score” value was 0.
In the case of Cc1ccc(=O)n(-c2ccccc2)c1 [Pirfenidone] (top concentration 10000 nM), the “selective drug sensitivity score” value is reported as 0.

The compounds below were run on P30-OHKUBO in the same assay as above. Settings: 72 h.
In the case of CC(=O)[C@]1(O)Cc2c(O)c3c(c(O)c2[C@@H](O[C@H]2C[C@H](N)[C@H](O)[C@H](C)O2)C1)C(=O)c1ccccc1C3=O [Idarubicin] (top concentration 1000 nM), the “selective drug sensitivity score” value is reported as 3.94.
For COc1cc2nccc(Oc3ccc(NC(=O)NC4CC4)c(Cl)c3)c2cc1C(N)=O [Lenvatinib] (top concentration 2500 nM), the “selective drug sensitivity score” value was -0.14.
For N#Cc1ccc(C(c2ccc(C#N)cc2)n2cncn2)cc1 [Letrozole] (top concentration 10000 nM), the “selective drug sensitivity score” value was -0.04.
For CCNCCS(=O)(=O)NC[C@@]1(c2ccccc2)SC(NC(=O)C(C)(C)C)=NN1C(=O)C(C)(C)C [Litronesib] (top concentration 1000 nM), the “selective drug sensitivity score” value was 19.6.
In the case of CC[C@H](C)C(=O)O[C@H]1C[C@@H](C)C=C2C=C[C@H](C)[C@H](CC[C@@H]3C[C@@H](O)CC(=O)O3)[C@H]21 [Lovastatin] (top concentration 10000 nM), the “selective drug sensitivity score” value is reported as 2.5.
In the case of Cn1cc(-c2cnn3c(N)c(Br)c([C@@H]4CCCNC4)nc23)cn1 [MK-8776] (top concentration 2500 nM), the “selective drug sensitivity score” value is reported as -1.16.
Cc1cnc(-c2ccccc2C(C)C)nc1NCc1ccc(-n2ccnn2)cc1 [ML323] (top concentration 10000 nM) was tested, and the “selective drug sensitivity score” value was 0.54.
For O=C(CCNC(=O)c1ccc(OC(F)(F)F)cc1)N[C@@H]1CCCc2ccccc21 [ML390] (top concentration 50000 nM), the “selective drug sensitivity score” value was 13.6.
With CN(C)C(=N)NC(=N)N [Metformin] (top concentration 100000 nM) the “selective drug sensitivity score” value was -0.02.
For C[C@H]1C[C@@H]2[C@H]([C@@H](O)C[C@@]3(C)[C@H]2CC[C@]3(O)C(=O)CO)[C@@]2(C)C=CC(=O)C=C12 [Methylprednisolone] (top concentration 10000 nM), the “selective drug sensitivity score” value was 18.6.
With FC(F)(F)c1ccc(/C=C/c2nc(COc3ccc(CCCCn4ccnn4)cc3)co2)cc1 [Mubritinib] (top concentration 1000 nM) the “selective drug sensitivity score” value was 7.06.
In the case of COc1cc2c(cc1OC(C)C)[C@H](c1ccc(Cl)cc1)N(c1ccc(N(C)C[C@H]3CC[C@H](N4CCN(C)C(=O)C4)CC3)cc1)C(=O)C2 [NVP-CGM097] (top concentration 25000 nM), the “selective drug sensitivity score” value is reported as 10.2.
CCOc1cc2ncc(C#N)c(Nc3ccc(OCc4ccccn4)c(Cl)c3)c2cc1NC(=O)/C=C/CN(C)C [Neratinib] (top concentration 1000 nM) was tested, and the “selective drug sensitivity score” value was 2.78.
In the case of COc1ncc(-c2ccc3nccc(-c4ccnnc4)c3c2)cc1NS(=O)(=O)c1ccc(F)cc1F [Omipalisib] (top concentration 1000 nM), the “selective drug sensitivity score” value is reported as 18.6.
CN1CCN(c2cc(C(=O)Nc3ccc4c(c3)-c3c(c(C(N)=O)nn3-c3ccc(F)cc3)CC4)c(Cl)cn2)CC1 [PHA-408] (top concentration 10000 nM) was tested, and the “selective drug sensitivity score” value was 1.48.
For OC[C@H]1O[C@@H](n2cnc3c2N=CNC[C@H]3O)C[C@@H]1O [Pentostatin] (top concentration 10000 nM), the “selective drug sensitivity score” value was -0.44.
CC(C)N(C[C@H]1O[C@@H](n2cnc3c(N)ncnc32)[C@H](O)[C@@H]1O)[C@H]1C[C@@H](CCc2nc3cc(C(C)(C)C)ccc3[nH]2)C1 [Pinometostat] (top concentration 1000 nM) was tested, and the “selective drug sensitivity score” value was 0.
For Cc1ccc(=O)n(-c2ccccc2)c1 [Pirfenidone] (top concentration 10000 nM), the “selective drug sensitivity score” value was 0.

What follows are compounds tested on COG-LL-355h in the same assay as above. Settings: 72 h.
With CC(=O)[C@]1(O)Cc2c(O)c3c(c(O)c2[C@@H](O[C@H]2C[C@H](N)[C@H](O)[C@H](C)O2)C1)C(=O)c1ccccc1C3=O [Idarubicin] (top concentration 1000 nM) the “selective drug sensitivity score” value was 3.14.
With COc1cc2nccc(Oc3ccc(NC(=O)NC4CC4)c(Cl)c3)c2cc1C(N)=O [Lenvatinib] (top concentration 2500 nM) the “selective drug sensitivity score” value was -0.24.
N#Cc1ccc(C(c2ccc(C#N)cc2)n2cncn2)cc1 [Letrozole] (top concentration 10000 nM) was tested, and the “selective drug sensitivity score” value was -0.04.
CCNCCS(=O)(=O)NC[C@@]1(c2ccccc2)SC(NC(=O)C(C)(C)C)=NN1C(=O)C(C)(C)C [Litronesib] (top concentration 1000 nM) was tested, and the “selective drug sensitivity score” value was 4.44.
CC[C@H](C)C(=O)O[C@H]1C[C@@H](C)C=C2C=C[C@H](C)[C@H](CC[C@@H]3C[C@@H](O)CC(=O)O3)[C@H]21 [Lovastatin] (top concentration 10000 nM) was tested, and the “selective drug sensitivity score” value was 0.
In the case of Cn1cc(-c2cnn3c(N)c(Br)c([C@@H]4CCCNC4)nc23)cn1 [MK-8776] (top concentration 2500 nM), the “selective drug sensitivity score” value is reported as 0.54.
Cc1cnc(-c2ccccc2C(C)C)nc1NCc1ccc(-n2ccnn2)cc1 [ML323] (top concentration 10000 nM) was tested, and the “selective drug sensitivity score” value was 2.04.
In the case of O=C(CCNC(=O)c1ccc(OC(F)(F)F)cc1)N[C@@H]1CCCc2ccccc21 [ML390] (top concentration 50000 nM), the “selective drug sensitivity score” value is reported as 8.6.
For CN(C)C(=N)NC(=N)N [Metformin] (top concentration 100000 nM), the “selective drug sensitivity score” value was -0.02.
In the case of C[C@H]1C[C@@H]2[C@H]([C@@H](O)C[C@@]3(C)[C@H]2CC[C@]3(O)C(=O)CO)[C@@]2(C)C=CC(=O)C=C12 [Methylprednisolone] (top concentration 10000 nM), the “selective drug sensitivity score” value is reported as 22.9.
In the case of FC(F)(F)c1ccc(/C=C/c2nc(COc3ccc(CCCCn4ccnn4)cc3)co2)cc1 [Mubritinib] (top concentration 1000 nM), the “selective drug sensitivity score” value is reported as 2.76.
COc1cc2c(cc1OC(C)C)[C@H](c1ccc(Cl)cc1)N(c1ccc(N(C)C[C@H]3CC[C@H](N4CCN(C)C(=O)C4)CC3)cc1)C(=O)C2 [NVP-CGM097] (top concentration 25000 nM) was tested, and the “selective drug sensitivity score” value was 2.86.
For CCOc1cc2ncc(C#N)c(Nc3ccc(OCc4ccccn4)c(Cl)c3)c2cc1NC(=O)/C=C/CN(C)C [Neratinib] (top concentration 1000 nM), the “selective drug sensitivity score” value was 5.68.
In the case of COc1ncc(-c2ccc3nccc(-c4ccnnc4)c3c2)cc1NS(=O)(=O)c1ccc(F)cc1F [Omipalisib] (top concentration 1000 nM), the “selective drug sensitivity score” value is reported as 19.5.
For CN1CCN(c2cc(C(=O)Nc3ccc4c(c3)-c3c(c(C(N)=O)nn3-c3ccc(F)cc3)CC4)c(Cl)cn2)CC1 [PHA-408] (top concentration 10000 nM), the “selective drug sensitivity score” value was 3.38.
OC[C@H]1O[C@@H](n2cnc3c2N=CNC[C@H]3O)C[C@@H]1O [Pentostatin] (top concentration 10000 nM) was tested, and the “selective drug sensitivity score” value was 1.26.
For CC(C)N(C[C@H]1O[C@@H](n2cnc3c(N)ncnc32)[C@H](O)[C@@H]1O)[C@H]1C[C@@H](CCc2nc3cc(C(C)(C)C)ccc3[nH]2)C1 [Pinometostat] (top concentration 1000 nM), the “selective drug sensitivity score” value was 0.
In the case of Cc1ccc(=O)n(-c2ccccc2)c1 [Pirfenidone] (top concentration 10000 nM), the “selective drug sensitivity score” value is reported as 0.

From the supplement of paper PMC8967900
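Further: ALL cell lines in 384-well plates, five doses spanning 10,000-fold, each plate scaled between vehicle and 100 µmol/L benzalkonium chloride controls, sDSS an adapted area-under-curve metric.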
